Experimental data published in US20250017964A1, “ENGINEERING OR INDUCING PDGF AND/OR PDGFR SIGNALING TO ENHANCE NK CELL THERAPY” (City of Hope, priority 2021, published 2025).

System: NOD/SCID/IL-2rg (NSG) mice
Assay: PDGF-D injection after NK cell adoptive transfer into NSG mice, annexin V and Ki-67
Settings: in vivo, PDGF-D 1 μg per mouse i.v. daily for 3 days
Procedure: FIGS. 6A-6M. IL-15 maintains NK cell survival through a PDGF-D-PDGFRβ autocrine pathway. (A) 1×10^5 primary NK cells were cultured in vitro for 7 days in the presence of IL-15 (10 ng/ml) and PDGF-D (50 ng/ml). Cells were counted on days 3, 5, and 7 (n=3). (B) 1×10^5 primary NK cells were cultured in vitro for 7 days in the presence of IL-15 (10 ng/ml) and anti-PDGF-D (10 βg/ml) or control IgG (10 μg/ml). Cells were counted on days 3, 5, and 7 (n=3). […] The cells were counted by trypan exclusion assay on days 3, 5, and 7 (n=3). (D) 1×10^5 primary NK cells were cultured in vitro for 7 days in the presence of IL-15 (10 ng/ml) and PDGF-D (50 ng/ml) as well as anti-PDGFRβ (10 μg/ml). Cells were counted by trypan exclusion assay on days 3, 5, and 7 (n=3). (E) 1×10^5 primary NK cells were cultured in vitro for 7 days in the presence of IL-15 (10 ng/ml) and PDGF-D (50 ng/ml) as well as anti-NKp44 (10 μg/ml). Cells were counted by trypan exclusion assay on days 3, 5, and 7 (n=3). (F-I) Primary NK cells were cultured in the presence of IL-15 (10 ng/ml) and PDGF-D (50 ng/ml) as well as anti-NKp44 (10 μg/ml) or anti-PDGFRβ (10 Kg/ml) for 48 h. The cultured NK cells were then harvested for immunoblotting to determine protein levels of BCL-2, BCL-XL, and MCL-1 (n=3). […] Cell apoptosis and proliferation were analyzed by annexin V staining (J) and Ki-67 staining (K), respectively. […]

Substance: PDGF-D: recombinant human PDGF-DD (1159-SB-025), R&D Systems
- NK cell proliferation (Ki67): did not affect NK cell proliferation
- apoptosis of PDGFRβ^+ NK cells (annexin V) (peripheral blood): inhibited apoptosis
